Counter-ions that a name gives are not always drawn.
Legend:
mexY (EC) strain = experiment: Efflux ability inhibition effect on drug efflux pump MexY (Test Examples 1 and 3): proliferation (OD595) of mexY (EC) strain with EM or LVFX at 1/4 MIC, EC75; type: cell-based, Escherichia coli; details: Table 53, Test Example 3, same manner as Test Example 1; for EC75, mexY (EC) strain, LVFX: combined with LVFX at 1/4 MIC
Summary of the method: (§1)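 E. coli ΔacrB/ΔtolC strains carrying P. aeruginosa MexAB-OprM or MexXY-OprM were grown in LB for 16 to 20 hours with EM or LVFX at ¼ MIC plus compound (0 to 800 μM). Growth was read as OD595. EC75 is the lowest compound concentration giving ≥75% growth inhibition versus antibiotic alone.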

mexB (EC) strain = experiment: Efflux ability inhibition effect on drug efflux pump MexB (Test Examples 1 and 3): proliferation (OD595) of mexB (EC) strain with EM or LVFX at 1/4 MIC, EC75; type: cell-based, Escherichia coli; details: Table 53, Test Example 3, same manner as Test Example 1; for EC75, mexB (EC) strain, LVFX: combined with LVFX at 1/4 MIC
Summary of the method: as §1

mexB (PA) strain = experiment: Combinational effect with antibacterial agent against Pseudomonas aeruginosa (Test Examples 2 and 4): mexB (PA) strain with LVFX, TC or AZT at 1/4 MIC, EC99; type: cell-based; details: mexB (PA) strain, Test Example 4; for EC99, combinational effect with AZT, mexB (PA): combined with AZT at 1/4 MIC; for EC99, combinational effect with LVFX, mexB (PA): combined with LVFX at 1/4 MIC; for EC99, combinational effect with TC, mexB (PA): combined with TC at 1/4 MIC
Summary of the method: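 P. aeruginosa mexB (PA) strain, lacking MexCD-OprJ, MexEF-OprN and MexXY and overexpressing MexAB-OprM, grown 16–20 h in CAMHB (10^4–5 CFU/well) with LVFX, TC or AZT at ¼ MIC plus test compound at 0–800 μM. Growth read as OD595; EC99 is the lowest compound concentration giving ≥99% growth inhibition.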

S-3769 strain = experiment: Combinational effect with antibacterial agent against Pseudomonas aeruginosa (Test Examples 2 and 4): S-3769 strain with AMK or GM at 1/4 MIC, EC99; type: cell-based; details: S-3769 strain, Test Example 4; for EC99, combinational effect with AMK, S-3769 strain: combined with AMK at 1/4 MIC; for EC99, combinational effect with GM, S-3769 strain: combined with GM at 1/4 MIC
Summary of the method: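 P. aeruginosa S-3769 (clinical isolate, MexY overexpressed) grown 16–20 h in CAMHB, 10^4 to 5 CFU/well, with AMK or GM at ¼ MIC plus test compound 0–800 μM. Growth read as OD595; EC99 is the lowest compound concentration giving ≥99% growth inhibition.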

| Compound | EC75, mexY (EC) strain, EM (mexY (EC) strain; combined with EM at 1/4 MIC) | EC75, mexY (EC) strain, LVFX (mexY (EC) strain) | EC75, mexB (EC) strain, EM (mexB (EC) strain; combined with EM at 1/4 MIC) | EC75, mexB (EC) strain, LVFX (mexB (EC) strain) | EC99, combinational effect with AZT, mexB (PA) (mexB (PA) strain) | EC99, combinational effect with LVFX, mexB (PA) (mexB (PA) strain) | EC99, combinational effect with TC, mexB (PA) (mexB (PA) strain) | EC99, combinational effect with AMK, S-3769 strain (S-3769 strain) | EC99, combinational effect with GM, S-3769 strain (S-3769 strain) |
| --- | --- | --- | --- | --- | --- | --- | --- | --- | --- |
| COc1cncc(F)c1CN1CCN(C(=O)[C@H](N)C2CCN(CCc3cc(Cl)ccc3-c3ccccc3)CC2)CC1 [Example 514, Hydrobromide of (R)-2-amino-2-(1-(2-(4-chloro-[1,1-biphenyl]-2-yl)ethyl)piperidin-4-yl)-1-(4-((3-fluoro-5-methoxypyridin-4-yl)methyl)piperazin-1-yl)ethan-1-one] | B (25 μM<EC75≤100 μM) | B (25 μM<EC75≤100 μM) | B (25 μM<EC75≤100 μM) | B (25 μM<EC75≤100 μM) | C (100 μM<EC99) | C (100 μM<EC99) | C (100 μM<EC99) | B (25 μM<EC99≤100 μM) | B (25 μM<EC99≤100 μM) |
| N[C@@H](C(=O)N1CCN(C[C@@H]2CCCN2)CC1)C1CCN(CCc2cc(Cl)ccc2-c2ccccc2)CC1 [Example 538, Hydrobromide of (R)-2-amino-2-(1-(2-(4-chloro-[1,1-biphenyl]-2-yl)ethyl)piperidin-4-yl)-1-(4-(((S)-pyrrolidin-2-yl)methyl)piperazin-1-yl)ethan-1-one] |  | A (12.5 μM<EC75≤25 μM) |  | B (25 μM<EC75≤100 μM) | C (100 μM<EC99) | C (100 μM<EC99) | C (100 μM<EC99) | C (100 μM<EC99) | C (100 μM<EC99) |

From patent US20250326744A1, “PIPERAZINE DERIVATIVE OR SALT THEREOF, AND PHARMACEUTICAL COMPOSITION” (priority 2022, published 2025)
